IC90, MIC and IC50 data for five compounds are collected here from patent US10800791B2, “Triazole ACC inhibitors and uses thereof” (Gilead Apollo, LLC, priority 2015, dated 2020).

A word on the MIC: it is the smallest concentration in the dilution series that meets the test's criterion for growth inhibition. Usually pIC50 stands for the IC50 on a negative log10 scale, so that one unit is a factor of ten.

Structures are written as SMILES. pIC50: −log10 of the molar value. In brackets after ≈: the same amount, converted by molar mass. Bounds are passed on as bounds.

Assay [1] has as its system Rhizoctonia solani (Rs). Nature of the assay: Growth inhibition assay of fungal pathogens, Rs. Type of assay: cell-based. The settings on record: 48 h, read-out: Concentration at 90% Inhibition Rs, Rhizoctonia solani, mycelial plugs, growth inhibition at 48 hours vs 2% DMSO control.
The test system of assay [2] is Collectotrichum graminicola (Cg). Nature of the assay: Growth inhibition assay of fungal pathogens, Cg. Format: cell-based. The following applies: 48 h, read-out: Concentration at 90% Inhibition Cg, Collectotrichum graminicola; growth inhibition at 48 hours vs 2% DMSO control. The essentials:
(§1)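 Spores diluted in 17% V8 liquid media and incubated with compound at final 50, 10, 2 ppm or 2, 0.4, 0.08 ppm (2% DMSO). OD600 plus visual ratings at 24 and 48 hours, blank-subtracted; percent growth inhibition from 48 h readings relative to 2% DMSO control.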

Assay [3] relates to C. krusei. Nature of the assay: Antifungal Activity Assay (broth microtiter MIC), C. krusei. Type of assay: cell-based, Candida krusei. The following applies: Pichia kudriavzevii, ATCC6258, 48 h, read-out: MIC, C. krusei ATCC 6258, Table 3b (additional results), 3 replicates, MIC recorded at 48 h. A digest of the protocol:
(§2)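 Broth microdilution per CLSI M27-A3 in RPMI 1640+MOPS, inoculum 2.5×10^3 CFU/mL final from overnight Sabouraud dextrose agar cultures at 35° C. Compounds diluted from DMSO stock to 128 μg/mL in water. MIC read visually versus growth control at 48 h.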

The test system of assay [4] is Phytophthora capsici (Pc). Nature of the assay: Growth inhibition assay of fungal pathogens, Pc. Type of assay: cell-based. The settings on record: 48 h, read-out: Concentration at 90% Inhibition Pc, Phytophthora capsici, growth inhibition at 48 hours vs 2% DMSO control. A digest of the protocol: as §1
Assay [5] relates to Diplodia maydis (Dm). Nature of the assay: Growth inhibition assay of fungal pathogens, Dm. Format: cell-based. The following applies: Stenocarpella maydis, 48 h, read-out: Concentration at 90% Inhibition Dm, Diplodia maydis; growth inhibition at 48 hours vs 2% DMSO control. The essentials: as §1
In assay [6] the test system is Septoria tritici (St). Nature of the assay: Growth inhibition assay of fungal pathogens, St. Type of assay: cell-based. The settings on record: Zymoseptoria tritici, 48 h, read-out: Concentration at 90% Inhibition St, Septoria tritici; growth inhibition at 48 hours vs 2% DMSO control. The essentials: as §1
Assay [7] addresses human (hACC2) (Homo sapiens, UniProt O00763). Nature of the assay: In vitro ACC inhibition assay (ADP-Glo), hACC2. Type of assay: biochemical. The following applies: Table 2b, additional results, 5 nM ACC2, 20 μM ATP, 20 μM acetyl-CoA. As for the experimental part: The detailed procedure is as follows. […] 10 μL ADP glo reagent was added. […] 20 μL kinase detection reagent was added.
A general note: ADP-Glo turns the ADP formed in a reaction into a luminescent signal.

The subject of assay [8] is Botrtyis cinerea (Bc). Nature of the assay: Growth inhibition assay of fungal pathogens, Bc. The settings on record: 48 h, read-out: Concentration at 90% Inhibition Bc, Botrtyis cinerea; growth inhibition at 48 hours vs 2% DMSO control. Type of assay: cell-based. A digest of the protocol: as §1
The test system of assay [9] is Fusarium virguliforme (Fv). Nature of the assay: Growth inhibition assay of fungal pathogens, Fv. The following applies: 48 h, read-out: Concentration at 90% Inhibition Fv, Fusarium virguliforme, growth inhibition at 48 hours vs 2% DMSO control. Format: cell-based. A digest of the protocol:
as §1

Assay [10] relates to C. albicans. Nature of the assay: Antifungal Activity Assay (broth microtiter MIC), C. albicans. Type of assay: cell-based, Candida albicans. The following applies: Candida albicans, ATCC90028, 48 h, read-out: MIC, C. albicans ATCC 90028, Table 3b (additional results), 3 replicates, MIC recorded at 48 h. A digest of the protocol:
as §2

In assay [11] the target is fungal (fACC2) (UniProt Q00955). The settings on record: read-out: fACC2 (in vitro ACC2 Inhibition Assay, IC50); Table 2b, additional results; ADP-Glo, 5 nM ACC2, 20 μM ATP, 20 μM acetyl-CoA.
In assay [12] the test system is Fusarium moniliforme (Fm). Nature of the assay: Growth inhibition assay of fungal pathogens, Fm. The settings on record: Fusarium verticillioides, 48 h, read-out: Concentration at 90% Inhibition Fm. Format: cell-based. A digest of the protocol: as §1
The test system of assay [13] is C. parapsilosis. Nature of the assay: Antifungal Activity Assay (broth microtiter MIC), C. parapsilosis. Type of assay: cell-based, Candida parapsilosis. The following applies: Lodderomyces parapsilosis, ATCC22019, 48 h, read-out: MIC, C. parapsilosis ATCC 22019, Table 3b (additional results), 3 replicates, MIC recorded at 48 h. A digest of the protocol:
as §2

fungal (fACC2), sequence (Q00955 whole entry): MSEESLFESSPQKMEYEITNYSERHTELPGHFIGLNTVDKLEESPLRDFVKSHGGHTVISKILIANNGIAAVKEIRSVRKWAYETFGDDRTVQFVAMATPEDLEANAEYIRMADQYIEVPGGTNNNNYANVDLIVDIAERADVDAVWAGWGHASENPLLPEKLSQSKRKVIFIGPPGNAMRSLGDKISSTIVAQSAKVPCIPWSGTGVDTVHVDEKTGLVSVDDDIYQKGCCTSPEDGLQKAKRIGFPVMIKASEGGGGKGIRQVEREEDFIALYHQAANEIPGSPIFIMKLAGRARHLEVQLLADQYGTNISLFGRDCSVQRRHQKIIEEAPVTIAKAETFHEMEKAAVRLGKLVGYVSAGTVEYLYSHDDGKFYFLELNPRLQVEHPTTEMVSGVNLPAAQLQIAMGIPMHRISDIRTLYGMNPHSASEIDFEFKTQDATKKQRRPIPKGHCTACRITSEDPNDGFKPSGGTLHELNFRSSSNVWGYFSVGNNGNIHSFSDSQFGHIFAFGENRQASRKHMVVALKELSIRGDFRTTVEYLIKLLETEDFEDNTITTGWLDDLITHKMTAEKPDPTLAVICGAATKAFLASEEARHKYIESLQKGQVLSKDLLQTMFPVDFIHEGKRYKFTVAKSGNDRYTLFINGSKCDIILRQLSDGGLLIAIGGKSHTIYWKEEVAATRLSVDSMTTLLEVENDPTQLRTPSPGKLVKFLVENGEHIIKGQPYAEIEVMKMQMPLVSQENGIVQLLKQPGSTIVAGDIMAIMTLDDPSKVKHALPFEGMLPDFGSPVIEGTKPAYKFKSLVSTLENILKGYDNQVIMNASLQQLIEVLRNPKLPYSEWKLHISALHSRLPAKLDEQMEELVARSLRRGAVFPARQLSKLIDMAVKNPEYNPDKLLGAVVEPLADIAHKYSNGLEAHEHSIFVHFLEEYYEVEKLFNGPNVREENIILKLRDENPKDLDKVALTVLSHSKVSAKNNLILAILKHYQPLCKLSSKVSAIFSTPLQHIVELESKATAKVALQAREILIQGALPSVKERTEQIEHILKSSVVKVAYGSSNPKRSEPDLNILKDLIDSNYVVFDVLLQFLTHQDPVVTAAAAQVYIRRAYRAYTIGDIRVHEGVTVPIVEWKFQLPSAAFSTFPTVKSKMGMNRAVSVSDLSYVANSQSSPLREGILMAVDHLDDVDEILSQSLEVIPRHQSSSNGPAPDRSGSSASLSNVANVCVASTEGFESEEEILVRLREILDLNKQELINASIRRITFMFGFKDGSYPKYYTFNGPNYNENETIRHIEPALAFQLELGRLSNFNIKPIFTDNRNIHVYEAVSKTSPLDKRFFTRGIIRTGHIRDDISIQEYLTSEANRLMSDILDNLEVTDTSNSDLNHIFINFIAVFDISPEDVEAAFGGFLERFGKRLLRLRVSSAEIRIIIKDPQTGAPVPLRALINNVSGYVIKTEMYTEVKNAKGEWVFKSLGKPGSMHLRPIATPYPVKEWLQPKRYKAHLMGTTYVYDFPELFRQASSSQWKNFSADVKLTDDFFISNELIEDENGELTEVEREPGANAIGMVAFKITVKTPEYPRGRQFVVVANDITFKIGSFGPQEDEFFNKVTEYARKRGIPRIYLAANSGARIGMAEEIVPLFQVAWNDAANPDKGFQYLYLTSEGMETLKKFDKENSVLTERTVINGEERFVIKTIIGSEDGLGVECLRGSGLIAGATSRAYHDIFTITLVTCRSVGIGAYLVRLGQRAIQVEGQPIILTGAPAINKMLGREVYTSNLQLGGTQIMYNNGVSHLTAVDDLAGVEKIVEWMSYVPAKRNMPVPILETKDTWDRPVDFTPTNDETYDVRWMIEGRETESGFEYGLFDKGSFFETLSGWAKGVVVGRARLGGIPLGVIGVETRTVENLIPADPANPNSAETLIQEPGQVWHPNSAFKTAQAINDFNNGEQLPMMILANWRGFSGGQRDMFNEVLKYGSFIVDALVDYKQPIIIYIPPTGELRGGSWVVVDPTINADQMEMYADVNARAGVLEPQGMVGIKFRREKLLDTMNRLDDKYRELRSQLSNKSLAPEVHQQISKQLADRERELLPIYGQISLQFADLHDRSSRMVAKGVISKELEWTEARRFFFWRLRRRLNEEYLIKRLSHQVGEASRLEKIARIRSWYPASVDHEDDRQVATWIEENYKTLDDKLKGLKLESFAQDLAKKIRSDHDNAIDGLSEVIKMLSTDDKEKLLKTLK
human (hACC2), sequence (O00763 whole entry): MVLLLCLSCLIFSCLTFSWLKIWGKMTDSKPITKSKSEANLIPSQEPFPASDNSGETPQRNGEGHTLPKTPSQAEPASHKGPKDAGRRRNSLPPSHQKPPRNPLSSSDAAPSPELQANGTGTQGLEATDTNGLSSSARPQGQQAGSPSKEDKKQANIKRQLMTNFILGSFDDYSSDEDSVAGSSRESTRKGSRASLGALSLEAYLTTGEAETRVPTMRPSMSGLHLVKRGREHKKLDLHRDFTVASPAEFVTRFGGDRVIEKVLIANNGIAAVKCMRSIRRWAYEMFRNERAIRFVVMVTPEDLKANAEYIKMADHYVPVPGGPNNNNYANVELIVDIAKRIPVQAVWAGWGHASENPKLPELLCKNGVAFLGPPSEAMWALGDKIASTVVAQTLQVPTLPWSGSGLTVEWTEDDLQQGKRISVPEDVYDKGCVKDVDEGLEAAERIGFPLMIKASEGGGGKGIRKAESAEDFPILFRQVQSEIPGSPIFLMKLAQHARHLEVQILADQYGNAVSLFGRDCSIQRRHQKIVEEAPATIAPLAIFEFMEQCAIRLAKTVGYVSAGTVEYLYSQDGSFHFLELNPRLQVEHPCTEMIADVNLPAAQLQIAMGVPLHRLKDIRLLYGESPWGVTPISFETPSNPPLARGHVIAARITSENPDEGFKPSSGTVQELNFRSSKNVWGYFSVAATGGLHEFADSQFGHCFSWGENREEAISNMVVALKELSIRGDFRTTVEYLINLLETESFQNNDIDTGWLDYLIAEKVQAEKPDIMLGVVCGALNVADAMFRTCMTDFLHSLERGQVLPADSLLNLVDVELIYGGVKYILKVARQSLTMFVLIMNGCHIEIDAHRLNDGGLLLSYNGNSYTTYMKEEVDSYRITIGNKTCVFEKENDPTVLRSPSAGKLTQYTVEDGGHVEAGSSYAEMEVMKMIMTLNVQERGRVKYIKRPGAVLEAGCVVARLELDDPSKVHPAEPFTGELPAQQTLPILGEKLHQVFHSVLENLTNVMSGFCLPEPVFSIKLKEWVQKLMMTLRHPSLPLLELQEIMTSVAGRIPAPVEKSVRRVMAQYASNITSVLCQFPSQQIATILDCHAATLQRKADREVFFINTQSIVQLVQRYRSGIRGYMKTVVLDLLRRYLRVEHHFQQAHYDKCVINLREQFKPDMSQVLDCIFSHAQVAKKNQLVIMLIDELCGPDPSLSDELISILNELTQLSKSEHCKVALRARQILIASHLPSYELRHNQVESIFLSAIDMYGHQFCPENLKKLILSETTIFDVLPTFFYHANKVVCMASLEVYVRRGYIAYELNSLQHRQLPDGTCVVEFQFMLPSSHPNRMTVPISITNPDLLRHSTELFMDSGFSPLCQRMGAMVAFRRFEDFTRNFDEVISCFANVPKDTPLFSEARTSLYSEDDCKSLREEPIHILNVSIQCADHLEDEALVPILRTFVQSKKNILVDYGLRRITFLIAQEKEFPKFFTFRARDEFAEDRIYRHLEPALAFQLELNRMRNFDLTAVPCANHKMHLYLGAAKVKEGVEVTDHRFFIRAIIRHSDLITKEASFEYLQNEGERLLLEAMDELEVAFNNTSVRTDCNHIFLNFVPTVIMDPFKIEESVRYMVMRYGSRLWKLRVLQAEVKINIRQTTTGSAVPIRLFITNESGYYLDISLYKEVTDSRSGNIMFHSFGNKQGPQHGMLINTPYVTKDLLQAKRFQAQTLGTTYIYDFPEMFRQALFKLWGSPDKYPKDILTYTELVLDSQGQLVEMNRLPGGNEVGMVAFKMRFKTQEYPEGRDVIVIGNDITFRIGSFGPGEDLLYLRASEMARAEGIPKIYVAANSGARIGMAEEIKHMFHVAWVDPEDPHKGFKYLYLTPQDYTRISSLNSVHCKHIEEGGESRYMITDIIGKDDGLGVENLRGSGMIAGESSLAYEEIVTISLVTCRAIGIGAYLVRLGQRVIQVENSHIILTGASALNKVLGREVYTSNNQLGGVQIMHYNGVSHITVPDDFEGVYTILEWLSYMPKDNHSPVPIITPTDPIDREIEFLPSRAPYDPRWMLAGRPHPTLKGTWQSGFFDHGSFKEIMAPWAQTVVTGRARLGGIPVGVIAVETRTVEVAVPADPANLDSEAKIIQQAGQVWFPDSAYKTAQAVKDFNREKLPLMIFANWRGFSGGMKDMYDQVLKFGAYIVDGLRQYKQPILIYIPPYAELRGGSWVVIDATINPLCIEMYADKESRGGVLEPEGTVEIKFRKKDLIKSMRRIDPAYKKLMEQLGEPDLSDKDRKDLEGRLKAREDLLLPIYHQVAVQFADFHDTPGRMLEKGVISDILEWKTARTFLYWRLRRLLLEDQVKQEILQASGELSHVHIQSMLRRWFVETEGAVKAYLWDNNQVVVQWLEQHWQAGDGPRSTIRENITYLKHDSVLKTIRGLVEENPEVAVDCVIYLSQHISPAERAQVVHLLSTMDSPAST

As to `COc1ccc(F)cc1[C@H](Cn1c(=O)n(C(C)(C)C(=O)NC(C)C)c(=O)c2c(C)c(-n3nccn3)sc21)O[C@H]1CC[C@@H](O)CC1` [Compound I-216], the IC90 in assay [1] is 0.08 µg/mL (≈ 0.124 µM); in assay [2], 2 µg/mL (≈ 3.11 µM); in assay [4], above 50 µg/mL; in assay [5], 2 µg/mL (≈ 3.11 µM); in [6] it was above 50 µg/mL; in assay [8] it was 0.4 µg/mL (≈ 0.622 µM). The results for the IC90 in [9] and in assay [12] were 0.4 µg/mL (≈ 0.622 µM) and 0.08 µg/mL (≈ 0.124 µM), respectively. The values for the MIC in assay [3], in assay [10] and in [13] were 0.06 to 0.249 µg/mL (≈ 0.0933 to 0.387 µM), 0.25 to 1 µg/mL (≈ 0.389 to 1.56 µM) and 0.25 to 1 µg/mL (≈ 0.389 to 1.56 µM), respectively. For the same compound, the pIC50 in assay [7] was 8.00 to 8.30; in [11] it was 9.00 to 9.52.
Take `COc1ccccc1[C@H](Cn1c(=O)n(C(C)(C)C(=O)NC(C)C)c(=O)c2c(C)c(-n3nccn3)sc21)O[C@H]1CC[C@@H](O)CC1` [Compound I-217]: the IC90 is 0.08 µg/mL (≈ 0.128 µM) in assay [1]; 2 µg/mL (≈ 3.2 µM) in [2]; above 50 µg/mL in [4]; 2 µg/mL (≈ 3.2 µM) in assay [5]; above 50 µg/mL in assay [6]; 0.4 µg/mL (≈ 0.64 µM) in assay [8]. Further, the IC90 in assay [9] came to 0.4 µg/mL (≈ 0.64 µM); in [12], 0.08 µg/mL (≈ 0.128 µM). The MIC in [3] was in the range of 0.06 to 0.249 µg/mL (≈ 0.096 to 0.399 µM); in assay [10], 0.25 to 1 µg/mL (≈ 0.4 to 1.6 µM); in assay [13], 0.25 to 1 µg/mL (≈ 0.4 to 1.6 µM). Moreover, the pIC50 was 8.00 to 8.30 in assay [7] and 9.00 to 9.52 in [11].
On to `COc1ccc(F)cc1[C@H](Cn1c(=O)n(C(C)(C)C(=O)NC(C)C)c(=O)c2c(C)c(-n3nccn3)sc21)OCCC(=O)NO` [Compound I-218], for which the IC90 in assay [1] is 2 µg/mL (≈ 3.17 µM); in assay [2] it was 10 µg/mL (≈ 15.8 µM); in assay [4] it was above 50 µg/mL; in assay [5], 10 µg/mL (≈ 15.8 µM); in [6] it was above 50 µg/mL; in assay [8] it was 2 µg/mL (≈ 3.17 µM). In addition, the IC90 in assay [9] and in [12] was 2 µg/mL (≈ 3.17 µM) in each case. The MIC in assay [3], in assay [10] and in assay [13] was 0.25 to 1 µg/mL (≈ 0.396 to 1.58 µM) each time. In addition, the pIC50 in assay [7] is 7.40 to 8.00; in assay [11], 8.30 to 9.00.
In the case of `Cc1c(-n2nccn2)sc2c1c(=O)n(C(C)(C)C(=O)NC1CCC1)c(=O)n2C[C@H](OC(C)C)c1cc(F)ccc1OCC#N` [Compound I-221], the IC90 in assay [1] is 0.4 µg/mL (≈ 0.641 µM); in assay [2] it was 2 µg/mL (≈ 3.21 µM); in [4], above 50 µg/mL; in [5] it was 2 µg/mL (≈ 3.21 µM); in [6], above 50 µg/mL; in [8] it was 0.4 µg/mL (≈ 0.641 µM). Besides, the IC90 in assay [9] is 0.4 µg/mL (≈ 0.641 µM); in assay [12] it was 0.08 µg/mL (≈ 0.128 µM). Moreover, the MIC in assay [3] lay in the range of 0.25 to 1 µg/mL (≈ 0.401 to 1.6 µM); in assay [10], 1.01 to 2 µg/mL (≈ 1.62 to 3.21 µM); in assay [13] it was 0.25 to 1 µg/mL (≈ 0.401 to 1.6 µM). In addition, the pIC50 in [7] is 8.00 to 8.30; in assay [11], 9.00 to 9.52.
With `Cc1c(-n2nccn2)sc2c1c(=O)n(C(C)(C)C(=O)NC(C)C)c(=O)n2C[C@H](O[C@H]1CC[C@@H](O)CC1)c1cc(F)ccc1OCC#N` [Compound I-222], the IC90 in [1] is 0.4 µg/mL (≈ 0.599 µM); in [2], 2 µg/mL (≈ 3 µM); in assay [4], above 50 µg/mL; in assay [5], 0.4 µg/mL (≈ 0.599 µM); in assay [6], above 50 µg/mL; in assay [8] it was 2 µg/mL (≈ 3 µM). The figures for the IC90 in [9] and in assay [12] were 2 µg/mL (≈ 3 µM) and 0.08 µg/mL (≈ 0.12 µM), respectively. Also, the MIC in assay [3], in [10] and in assay [13] was 0.25 to 1 µg/mL (≈ 0.374 to 1.5 µM) throughout. Moreover, the pIC50 in [7] is 8.00 to 8.30; in assay [11], 9.00 to 9.52.
